Patent US12662458B2, “Solid forms of a compound” (Denali Therapeutics Inc., priority 2020, dated 2026)
Converted amounts (≈) assume the structure as drawn.

How the values were obtained:
[1] = Plasma PK in monkeys, powder in capsule; type: in vivo; conditions: micronized (d90 5), single oral 15 mg/kg, cynomolgus monkeys
Method: Non-naïve male cynomolgus monkeys were used in this study with at least a 7-day washout period prior to dosing Animals were administered micronized Form A, unmicronized Form A, or micronized Form C powder in capsule by single oral administration at 15 mg/kg. The capsules were prepared according to the animals' body weights on dosing day. Blood samples were collected at 0.25, 0.5, 1, 2, 4, 8, 24, 48, and 72 hours post-dose.

[2] = Dynamic vapor sorption (hygroscopicity); type: physicochemical; conditions: DVS
Method: DVS analysis was carried out using a Surface Measurement System DVS Intrinsic analyzer. The instrument was calibrated with standard weights. Approximately 15-20 mg of sample was loaded into a pan for analysis. The sample was analyzed at 25° C. in 10% relative humidity (RH) steps from 0 to 95% RH (adsorption cycle) and from 95 to 0% RH (desorption cycle). The movement from one step to the next occurred either after satisfying the equilibrium criterion of 0.002% weight change (dm/dt) or, if the equilibrium criterion was not met, after ten hours.

[3] = Biorelevant media solubility of Forms A and C; type: physicochemical; conditions: for Solubility / Final XRPD: 37° C.
Method: Biorelevant media solubility of Forms A and C were studied in water, SGF, FaSSIF, and FeSSIF at 37° C. 10-20 mg of Form A or C was weighed into 2-3 mL glass vials and media was added to achieve a solids loading of ˜5 mg/mL. Each slurry was magnetically agitated at 750-1000 rpm at 37° C., filtered via centrifugation, and the supernatant was analyzed by HPLC to determine solubility. In all cases, there was no polymorphic form change observed by XRPD analysis of the filtered solids.

[4] = Solid form stability on storage; type: physicochemical
Method: To evaluate the solid form stability, Forms A and C were stored under 25° C./60% RH (open), 40° C./75% RH (open), and 60° C. for up to 4 weeks. Samples were analyzed by XRPD, TGA, DSC, and HPLC purity.

[5] = Plasma PK in monkeys, nanosuspension; type: in vivo; conditions: nanosuspension in deionized water, single oral 25 mg/kg, cynomolgus monkeys
Method: Non-naïve male cynomolgus monkeys were used in this study with at least a 7-day washout period prior to dosing Animals were administered a nanosuspension of Form C as a single oral administration at 25 mg/kg. The nanosuspension was prepared by suspending nano-milled Form C in deionized water (5 mg/mL) to obtain an opaque homogenous suspension. Blood samples were collected at 0.25, 0.5, 1, 2, 4, 8, 24, 48, and 72 hours post-dose. Concentrations of Compound I in plasma samples were determined by LC/MS/MS.
A separate study was performed for a nanosuspension of Form A.

[6] = Plasma PK in rats, nanosuspension; type: in vivo; conditions: nanosuspension in deionized water, single oral 25 mg/kg, Wistar Han rats
Method: Wistar Han rats were administered a nanosuspension of Form A or Form C as a single oral administration at 25 mg/kg. The nanosuspensions were prepared by suspending nano-milled Form A or Form C in deionized water (2.5 mg/mL) to obtain opaque homogenous suspensions. Blood samples were collected at 0.25, 0.5, 1, 2, 4, 8, 24, 48, and 72 hours post-dose. Concentrations of Compound I in plasma samples were determined by LC/MS/MS.

O=C(COc1ccc(Cl)cc1)NC12CC(c3nnc([C@H]4C[C@@H](OC(F)(F)F)C4)o3)(C1)C2 (single isomer, unassigned) [Form C, 2-(4-chlorophenoxy)-N-[3-[5-[cis-3-(trifluoromethoxy)cyclobutyl]-1,3,4-oxadiazol-2-yl]-1-bicyclo[1.1.1]pentanyl]acetamide]
AUC0-24 h [1]: 117 ± 39 μM-hr | Cmax [1]: 7.6 ± 3.4 µM | Tmax [1]: 4 h | Hygroscopicity [2]: Non-hygroscopic | weight change / form change after exposure to humidity [2]: no weight change and no polymorphic change | Solubility ([3]; FaSSIF): 9.65 µg/mL (≈ 21.1 µM) | Solubility ([3]; FeSSIF): 16.14 µg/mL (≈ 35.3 µM) | Solubility ([3]; SGF): 0.56 µg/mL (≈ 1.22 µM) | Solubility ([3]; Water): 1.02 µg/mL (≈ 2.23 µM) | Final XRPD ([3]; filtered solids after slurry in FaSSIF): Form C | Final XRPD ([3]; filtered solids after slurry in FeSSIF): Form C | Final XRPD ([3]; filtered solids after slurry in SGF): Form C | Final XRPD ([3]; filtered solids after slurry in Water): Form C | aqueous solubility ([3]; listed as Compound I Form C): about 1.02 micrograms/mL | DSC endotherm ([4]; 25° C./60% RH (open), 2 week): 133.7 °C | HPLC purity ([4]; 25° C./60% RH (open), 2 week): 99.7% | TGA loss (%, to 150° C.) ([4]; 25° C./60% RH (open), 2 week): 0.4% | XRPD ([4]; 25° C./60% RH (open), 2 week): Form C | DSC endotherm ([4]; 25° C./60% RH (open), 4 week): 133.3 °C | HPLC purity ([4]; 25° C./60% RH (open), 4 week): 99.7% | TGA loss (%, to 150° C.) ([4]; 25° C./60% RH (open), 4 week): 0.3% | XRPD ([4]; 25° C./60% RH (open), 4 week): Form C | solid form stability (form change, weight gain, purity changes) ([4]; 25° C./60% RH (open), 40° C./75% RH (open), 60° C., up to 4 weeks): No form change, weight gain, or purity changes | DSC endotherm ([4]; 40° C./75% RH (open), 2 week): 133.6 °C | HPLC purity ([4]; 40° C./75% RH (open), 2 week): 99.7% | TGA loss (%, to 150° C.) ([4]; 40° C./75% RH (open), 2 week): 0.2% | XRPD ([4]; 40° C./75% RH (open), 2 week): Form C | DSC endotherm ([4]; 40° C./75% RH (open), 4 week): 133.3 °C | HPLC purity ([4]; 40° C./75% RH (open), 4 week): 99.8% | TGA loss (%, to 150° C.) ([4]; 40° C./75% RH (open), 4 week): 0.2% | XRPD ([4]; 40° C./75% RH (open), 4 week): Form C | DSC endotherm ([4]; 60° C. (closed), 2 week): 133.6 °C | HPLC purity ([4]; 60° C. (closed), 2 week): 99.8% | TGA loss (%, to 150° C.) ([4]; 60° C. (closed), 2 week): 0.3% | XRPD ([4]; 60° C. (closed), 2 week): Form C | DSC endotherm ([4]; 60° C. (closed), 4 week): 133.0 °C | HPLC purity ([4]; 60° C. (closed), 4 week): 99.8% | TGA loss (%, to 150° C.) ([4]; 60° C. (closed), 4 week): 0.2% | XRPD ([4]; 60° C. (closed), 4 week): Form C | DSC endotherm ([4]; Initial): 133.1 °C | HPLC purity ([4]; Initial): 99.8% | TGA loss (%, to 150° C.) ([4]; Initial): 0.1% | XRPD ([4]; Initial): Form C | AUC0-24 h [5]: 367 ± 99 μM-hr | Cmax [5]: 21.7 ± 4.2 µM | Tmax [5]: 8 h | Tmax [6]: 8 h | AUC0-48 h ([6]; 25 mg/kg): 1658 ± 211 μM-hr | Cmax ([6]; 25 mg/kg): 101 ± 10 µM
